This is an account of results in patent US20250145606A1 (Arcus Biosciences, Inc., priority 2023, published 2025).

Assay [1] has as its target c-Kit (Homo sapiens (Human), UniProt P10721). The assay can be described thus: Inhibition of c-Kit kinase activity (HTRF KinEASE-TK). The class given is biochemical. The note with it: biochemical, HTRF KinEASE-TK. In outline:
(§1)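 Phosphorylation of biotinylated TK peptide read by HTRF (665/620 nm ratio) after 120 min at rt, following 1 h enzyme–compound preincubation. ATP (2× mix): 20 μM CSF1R, 16 μM c-Kit, 40 μM PDGFRβ, 1 μM PDGFRα; MgCl2 10 mM except c-Kit 5 mM. 22-point 1:2 titration; four-parameter IC50.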
A general note: In TR-FRET formats the signal depends on donor and acceptor labels being close together.

Assay [2] has as its system Phospho-KIT (Y703) in M07e cells. Description: Phospho-KIT (Y703) cellular assay in M07e cells. The class given is cell-based. The note with it: M-07e; Phospho-KIT (Y703), M07e cells; read-out: M07e Cell IC50. As for the experimental part: Phospho-KIT (Y703) Cellular Assay in M07e Cells
The day prior to assay, M07e cells (DSMZ, catalog #ACC 104) were serum starved. Cells were centrifuged and cell pellet resuspended in OptiMEM (Gibco, catalog #31985062) to a density of 1×10^6-2.5×10^6 cells per mL. Cells were then incubated overnight at 5% CO2 and 37° C. in an appropriately sized flask. On the day of the experiment, an 11 point, half log titration of test compound was pre-dispensed into 96-well round bottom polypropylene plates (Corning, catalog #3365). The serum starved M07e cells were centrifuged and resuspended to a cell density of 1×10^6 cells per mL with DPBS (Gibco, catalog #14190-144). Live/Dead Green Fixable viability dye (Invitrogen, catalog #L34970) was added as 1 μL/1 mL of cell suspension. Cells were then incubated in the dark at 4° C. for 30 min. Cells were washed by centrifugation and resuspension with DPBS+0.5% BSA (Gemini Bio Products, catalog #700110/100, 30% BSA solution). Cells were resuspended, separated into two equal volumes and again centrifuged. Cell pellets were resuspended with OptiMEM™ to a cell density of 1×10^6 cells per mL. Cells were then added to the appropriate compound plate at 100,000 cells per well in 100 μL and mixed. Plates were incubated at 5% CO2 and 37° C. for 50 min. Stem Cell Factor, SCF (R&D Systems, #255-SC/CF) was diluted in OptiMEM to 1 μg/mL and added to all wells as 10 μL for a final concentration of 90.9 ng/mL. Plates were incubated at 5% CO2 and 37° C. for 10 min. Incubation was stopped by addition of 110 μL 4% paraformaldehyde solution in PBS (Life Technologies, catalog #J19943.K2). Plates were incubated at rt for at least 15 min. Plates were then centrifuged and supernatant removed by flicking. Cells were washed once by resuspension in 200 μL DPBS+0.5% BSA, centrifuged, and supernatant removed by flicking. Cells were resuspended in 100 μL 1X Permeabilization buffer (Invitrogen, catalog #88882400) and plates incubated at rt for 30 min. Plates were centrifuged, supernatant removed by flicking, and cells resuspended in 50 μL primary antibody, anti-phospho-c-KIT (Tyr703) (Cell Signaling, catalog #3073), diluted to 1 μg/mL with permeabilization buffer. Plates were incubated at rt for 1 h. Plates were centrifuged, supernatant removed, and cells resuspended with 200 μL DPBS+0.5% BSA. Plates were again centrifuged, supernatant removed by flicking, and cells resuspended in 100 μL secondary antibody, goat anti-rabbit AlexaFluor647 (AF647) (Invitrogen, catalog #A21244) diluted to 1 μg/mL with DPBS+0.5% BSA. Plates were incubated at rt for 30 min. followed by centrifugation, supernatant removal, and cell resuspension with 200 μL DPBS+0.5% BSA. Cells were washed again by centrifugation, supernatant removal, and cell resuspension with 200 μL DPBS+0.5% BSA. Samples were then read by flow cytometry. The Forward: Side scatter plot was gated and that population was gated for live cells based on the Live/Dead Green staining. The geometric mean of AF647 of the live cell population was recorded. Percentage maximum activity in each test well was calculated based on DMSO (100% activity) and positive control treated cell wells (0% activity). The potencies (IC50 values) of test compounds were determined using a standard 4-parameter non-linear regression fit.

Assay [3] has as its target CSF1R (Homo sapiens (Human), UniProt P07333). The assay can be described thus: Inhibition of CSF1R kinase activity (HTRF KinEASE-TK). The note with it: biochemical, HTRF KinEASE-TK. The procedure, abridged: as §1
The target in assay [4] is PDGFRα (Homo sapiens (Human), UniProt P16234). The assay can be described thus: Inhibition of PDGFRα kinase activity (HTRF KinEASE-TK). Conditions: biochemical, HTRF KinEASE-TK. In outline:
as §1

Assay [5] has as its target PDGFRβ (Homo sapiens (Human), UniProt P09619). Description: Inhibition of PDGFRβ kinase activity (HTRF KinEASE-TK). The note with it: biochemical, HTRF KinEASE-TK. In outline:
as §1

A value given as a limit tells only on which side of the number the result lay.

Chain of PDGFRα (P16234 24-1089): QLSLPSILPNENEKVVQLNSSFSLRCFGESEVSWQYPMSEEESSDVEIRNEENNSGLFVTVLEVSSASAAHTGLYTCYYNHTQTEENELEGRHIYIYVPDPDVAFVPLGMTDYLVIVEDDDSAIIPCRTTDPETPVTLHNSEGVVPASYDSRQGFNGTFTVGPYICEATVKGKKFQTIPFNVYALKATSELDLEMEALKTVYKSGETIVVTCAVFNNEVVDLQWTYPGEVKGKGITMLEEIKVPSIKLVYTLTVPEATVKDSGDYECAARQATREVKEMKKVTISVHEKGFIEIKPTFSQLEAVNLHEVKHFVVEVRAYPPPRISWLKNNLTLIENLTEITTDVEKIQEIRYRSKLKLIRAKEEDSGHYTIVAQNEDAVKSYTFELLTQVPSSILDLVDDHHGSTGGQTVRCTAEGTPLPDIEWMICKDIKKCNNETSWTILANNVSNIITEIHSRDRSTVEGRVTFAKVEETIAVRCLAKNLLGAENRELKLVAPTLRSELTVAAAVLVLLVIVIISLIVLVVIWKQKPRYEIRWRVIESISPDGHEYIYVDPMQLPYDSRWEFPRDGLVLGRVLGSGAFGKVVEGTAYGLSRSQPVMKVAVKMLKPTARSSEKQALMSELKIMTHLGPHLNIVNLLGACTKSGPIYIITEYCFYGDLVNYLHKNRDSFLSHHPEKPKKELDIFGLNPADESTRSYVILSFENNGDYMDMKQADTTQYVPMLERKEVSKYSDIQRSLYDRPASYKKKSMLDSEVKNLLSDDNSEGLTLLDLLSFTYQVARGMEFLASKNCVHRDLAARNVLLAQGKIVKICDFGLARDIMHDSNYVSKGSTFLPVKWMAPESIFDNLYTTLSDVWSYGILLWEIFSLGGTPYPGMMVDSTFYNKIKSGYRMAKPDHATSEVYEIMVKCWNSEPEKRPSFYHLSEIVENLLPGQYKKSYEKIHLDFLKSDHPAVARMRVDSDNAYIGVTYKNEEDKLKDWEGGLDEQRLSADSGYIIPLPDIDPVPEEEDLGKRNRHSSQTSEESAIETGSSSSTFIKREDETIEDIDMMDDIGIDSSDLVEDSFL
Chain of c-Kit (P10721 26-976): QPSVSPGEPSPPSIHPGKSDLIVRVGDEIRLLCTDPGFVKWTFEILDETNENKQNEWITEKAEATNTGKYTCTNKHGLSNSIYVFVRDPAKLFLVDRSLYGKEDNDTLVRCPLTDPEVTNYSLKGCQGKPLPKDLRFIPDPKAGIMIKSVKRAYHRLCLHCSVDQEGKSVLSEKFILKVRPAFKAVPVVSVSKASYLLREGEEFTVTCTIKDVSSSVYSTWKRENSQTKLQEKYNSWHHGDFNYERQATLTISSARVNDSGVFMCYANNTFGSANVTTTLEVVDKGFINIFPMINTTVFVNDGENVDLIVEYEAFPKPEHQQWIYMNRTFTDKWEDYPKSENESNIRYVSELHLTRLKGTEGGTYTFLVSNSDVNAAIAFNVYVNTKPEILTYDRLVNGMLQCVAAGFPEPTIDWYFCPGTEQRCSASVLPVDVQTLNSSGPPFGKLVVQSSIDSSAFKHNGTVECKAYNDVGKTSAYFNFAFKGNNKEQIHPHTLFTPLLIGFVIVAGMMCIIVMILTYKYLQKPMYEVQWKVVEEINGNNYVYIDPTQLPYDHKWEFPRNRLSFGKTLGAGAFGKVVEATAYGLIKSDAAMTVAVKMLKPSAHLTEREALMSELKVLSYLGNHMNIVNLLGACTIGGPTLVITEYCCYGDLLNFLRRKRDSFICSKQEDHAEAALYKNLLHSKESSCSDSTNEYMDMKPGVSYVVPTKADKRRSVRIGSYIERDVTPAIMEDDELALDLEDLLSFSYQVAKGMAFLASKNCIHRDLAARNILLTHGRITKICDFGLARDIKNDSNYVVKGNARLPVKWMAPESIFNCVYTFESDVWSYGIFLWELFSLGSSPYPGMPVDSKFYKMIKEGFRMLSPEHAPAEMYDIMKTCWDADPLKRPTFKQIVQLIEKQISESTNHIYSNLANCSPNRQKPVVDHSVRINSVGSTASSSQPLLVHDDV
Chain of PDGFRβ (P09619 33-1106): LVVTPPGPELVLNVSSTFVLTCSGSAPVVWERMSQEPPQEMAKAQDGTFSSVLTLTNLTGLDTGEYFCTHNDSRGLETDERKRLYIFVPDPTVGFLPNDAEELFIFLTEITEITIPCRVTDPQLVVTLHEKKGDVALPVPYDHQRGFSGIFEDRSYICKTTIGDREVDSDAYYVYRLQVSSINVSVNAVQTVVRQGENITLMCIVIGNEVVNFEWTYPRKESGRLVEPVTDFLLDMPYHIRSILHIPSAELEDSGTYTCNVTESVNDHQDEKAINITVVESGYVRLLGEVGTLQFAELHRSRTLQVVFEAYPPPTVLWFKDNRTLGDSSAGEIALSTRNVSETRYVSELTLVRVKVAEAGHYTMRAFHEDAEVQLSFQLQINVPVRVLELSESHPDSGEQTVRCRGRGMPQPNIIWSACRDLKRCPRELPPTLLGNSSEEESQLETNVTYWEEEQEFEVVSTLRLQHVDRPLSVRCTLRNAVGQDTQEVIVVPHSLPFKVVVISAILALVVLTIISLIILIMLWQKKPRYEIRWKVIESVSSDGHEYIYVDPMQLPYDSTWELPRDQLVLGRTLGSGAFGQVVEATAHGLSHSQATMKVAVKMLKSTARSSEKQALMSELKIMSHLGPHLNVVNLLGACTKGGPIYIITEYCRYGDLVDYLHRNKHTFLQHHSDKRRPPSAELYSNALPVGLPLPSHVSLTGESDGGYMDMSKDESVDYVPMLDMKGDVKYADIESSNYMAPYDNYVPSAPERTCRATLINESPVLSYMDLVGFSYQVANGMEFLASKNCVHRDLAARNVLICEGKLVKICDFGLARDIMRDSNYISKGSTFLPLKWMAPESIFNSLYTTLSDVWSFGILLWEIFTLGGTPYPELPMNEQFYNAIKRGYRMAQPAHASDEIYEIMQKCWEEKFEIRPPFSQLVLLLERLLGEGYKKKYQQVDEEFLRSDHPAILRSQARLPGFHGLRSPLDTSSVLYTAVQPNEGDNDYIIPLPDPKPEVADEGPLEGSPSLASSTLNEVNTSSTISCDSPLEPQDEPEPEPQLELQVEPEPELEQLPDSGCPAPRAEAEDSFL
Chain of CSF1R (P07333 20-972): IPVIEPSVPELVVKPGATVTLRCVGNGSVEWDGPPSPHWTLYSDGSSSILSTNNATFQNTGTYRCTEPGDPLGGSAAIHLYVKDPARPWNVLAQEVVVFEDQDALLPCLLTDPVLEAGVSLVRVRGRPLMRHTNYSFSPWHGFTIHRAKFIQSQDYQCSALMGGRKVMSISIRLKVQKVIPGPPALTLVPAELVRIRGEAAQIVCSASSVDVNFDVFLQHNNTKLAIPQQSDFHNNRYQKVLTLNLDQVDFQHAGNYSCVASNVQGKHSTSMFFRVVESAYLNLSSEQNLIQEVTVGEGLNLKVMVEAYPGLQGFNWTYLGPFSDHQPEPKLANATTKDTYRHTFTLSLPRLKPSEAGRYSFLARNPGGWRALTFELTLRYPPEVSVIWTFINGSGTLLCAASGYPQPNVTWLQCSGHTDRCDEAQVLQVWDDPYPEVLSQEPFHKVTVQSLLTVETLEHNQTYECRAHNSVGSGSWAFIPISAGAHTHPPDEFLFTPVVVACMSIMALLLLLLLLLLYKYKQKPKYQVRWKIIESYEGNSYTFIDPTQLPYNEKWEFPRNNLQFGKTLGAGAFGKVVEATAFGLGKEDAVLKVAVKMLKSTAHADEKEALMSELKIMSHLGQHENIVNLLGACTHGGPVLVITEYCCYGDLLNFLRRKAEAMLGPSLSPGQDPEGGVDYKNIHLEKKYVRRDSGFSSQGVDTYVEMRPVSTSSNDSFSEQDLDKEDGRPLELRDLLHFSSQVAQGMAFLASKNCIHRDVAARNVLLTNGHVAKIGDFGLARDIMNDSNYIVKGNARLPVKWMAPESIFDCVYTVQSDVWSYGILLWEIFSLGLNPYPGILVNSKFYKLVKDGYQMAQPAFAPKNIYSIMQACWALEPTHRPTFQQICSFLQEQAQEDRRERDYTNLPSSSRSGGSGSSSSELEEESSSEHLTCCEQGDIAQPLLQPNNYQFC

Turning to `Cc1ncc(C(=O)Nc2cc(C(=O)NCc3cccnc3)c(F)cc2C)s1` [Example 12, N-(4-Fluoro-2-methyl-5-((pyridin-3-ylmethyl)carbamoyl)phenyl)-2-methylthiazole-5-carboxamide], the half-inhibitory concentration (IC50) in assay [1] and in assay [2] was 100 to 1000 nM throughout.
Consider `Cc1ncc(C(=O)Nc2cc(C(=O)Nc3cnc(OC(F)F)cn3)c(F)cc2C)s1` [Example 15, N-[5-[[5-(Difluoromethoxy)pyrazin-2-yl]carbamoyl]-4-fluoro-2-methylphenyl]-2-methyl-1,3-thiazole-5-carboxamide], for which the results for the IC50 in assay [1], in assay [3] and in assay [2] were below 100 nM, above 1000 nM and below 100 nM, respectively.
Consider `Cc1ncc(C(=O)Nc2cc(C(=O)Nc3ccnc(C#N)c3)c(F)cc2C)s1` [Example 18, N-[5-[(2-Cyanopyridin-4-yl)carbamoyl]-4-fluoro-2-methylphenyl]-2-methyl-1,3-thiazole-5-carboxamide], for which the 50% inhibitory concentration (IC50) is below 100 nM in assay [1], above 1000 nM in assay [3] and 100 to 1000 nM in assay [2].
For `Cc1ncc(C(=O)Nc2cc(C(=O)Nc3ccc(C#N)cn3)c(F)cc2C)s1` [Example 19, N-[5-[(5-Cyanopyridin-2-yl)carbamoyl]-4-fluoro-2-methylphenyl]-2-methyl-1,3-thiazole-5-carboxamide], in that order: 100 to 1000 nM, above 1000 nM and 100 to 1000 nM.
Turning to `Cc1ncc(C(=O)Nc2cc(C(=O)Nc3ccnc(OC(F)F)c3)c(F)cc2C)s1` [Example 21, N-[5-[[2-(Difluoromethoxy)pyridin-4-yl]carbamoyl]-4-fluoro-2-methylphenyl]-2-methyl-1,3-thiazole-5-carboxamide], the half-maximal inhibitory concentration (IC50) in assay [1] is below 100 nM; in assay [3], above 1000 nM; in assay [2] it was below 100 nM.
On to `Cc1ncc(C(=O)Nc2cc(C(=O)Nc3ccnc(C(F)F)c3)c(F)cc2C)s1` [Example 22, N-[5-[[2-(Difluoromethyl)pyridin-4-yl]carbamoyl]-4-fluoro-2-methylphenyl]-2-methyl-1,3-thiazole-5-carboxamide], for which the concentration for half-maximal inhibition (IC50) in assay [1] was below 100 nM; in assay [3], above 1000 nM; in assay [2] it was 100 to 1000 nM.
Taken in the same sequence, the figures for `COc1cnc(NC(=O)c2cc(NC(=O)c3cnc(C)s3)c(C)cc2F)cn1` [Example 23, N-[4-Fluoro-5-[(5-methoxypyrazin-2-yl)carbamoyl]-2-methylphenyl]-2-methyl-1,3-thiazole-5-carboxamide] were below 100 nM, above 1000 nM and 100 to 1000 nM.
Taken in the same sequence, the figures for `CCc1cnc(NC(=O)c2cc(NC(=O)c3cnc(C)s3)c(C)cc2F)cn1` [Example 27, N-[5-[(5-ethylpyrazin-2-yl)carbamoyl]-4-fluoro-2-methylphenyl]-2-methyl-1,3-thiazole-5-carboxamide] were below 100 nM, above 1000 nM and below 100 nM.
For `Cc1ncc(C(=O)Nc2cc(C(=O)Nc3cnc(C(C)C)cn3)c(F)cc2C)s1` [Example 28, N-[4-fluoro-2-methyl-5-[(5-propan-2-ylpyrazin-2-yl)carbamoyl]phenyl]-2-methyl-1,3-thiazole-5-carboxamide], in that order: below 100 nM, above 1000 nM and below 100 nM.
Take `Cc1ncc(C(=O)Nc2cc(C(=O)Nc3cnc(C(F)(F)F)cn3)c(F)cc2C)s1` [Example 29, N-[4-fluoro-2-methyl-5-[[5-(trifluoromethyl)pyrazin-2-yl]carbamoyl]phenyl]-2-methyl-1,3-thiazole-5-carboxamide]: the half-maximal inhibitory concentration (IC50) is below 100 nM in assay [1], above 1000 nM in assay [3] and below 100 nM in assay [2].
Consider `Cc1ncc(C(=O)Nc2cc(C(=O)N[C@H]3C[C@@H]3c3ccccc3)c(F)cc2C)s1` [Example 30, N-[4-Fluoro-2-methyl-5-[[(1S,2R)-2-phenylcyclopropyl]carbamoyl]phenyl]-2-methyl-1,3-thiazole-5-carboxamide], for which the IC50 in assay [1] is 100 to 1000 nM; in assay [3] it was above 1000 nM; in assay [2], below 100 nM.
In the case of `Cc1ncc(C(=O)Nc2cc(C(=O)Nc3ccc(C(F)F)nc3)c(F)cc2C)s1` [Example 54, N-[5-[[6-(difluoromethyl)pyridin-3-yl]carbamoyl]-4-fluoro-2-methylphenyl]-2-methyl-1,3-thiazole-5-carboxamide], the half-maximal inhibitory concentration (IC50) in assay [1] and in assay [2] was below 100 nM in each case.
Turning to `CCc1cc(F)c(C(=O)Nc2ccc(OC3CC3)cn2)cc1NC(=O)c1cnc(N)s1` [Example 237, 2-Amino-N-[5-[(5-cyclopropyloxypyridin-2-yl)carbamoyl]-2-ethyl-4-fluorophenyl]-1,3-thiazole-5-carboxamide], the IC50 in assay [1] is 100 to 1000 nM; in assay [4] it was above 1000 nM; in assay [5] it was above 1000 nM; in assay [3], above 1000 nM.
`Cc1c(F)cc(C(=O)Nc2ccc(OC3CC3)cn2)cc1NC(=O)c1cnc(N)s1` [Example 243, 2-Amino-N-[5-[(5-cyclopropyloxypyridin-2-yl)carbamoyl]-3-fluoro-2-methylphenyl]-1,3-thiazole-5-carboxamide]: the IC50 in assay [1], in assay [4], in assay [5] and in assay [3] was below 100 nM throughout.
For `Cc1cc(F)c(C(=O)Nc2ccc(CN3CCN(C)CC3)cn2)cc1NC(=O)c1cnc(N)s1` [Example 247, 2-Amino-N-[4-fluoro-2-methyl-5-[[5-[(4-methylpiperazin-1-yl)methyl]pyridin-2-yl]carbamoyl]phenyl]-1,3-thiazole-5-carboxamide], the IC50 in assay [1] is below 100 nM; in assay [4], above 1000 nM; in assay [5], 100 to 1000 nM; in assay [3] it was 100 to 1000 nM.
On to `Cc1cc(F)c(C(=O)Nc2ccc(CN3CCOCC3)cn2)cc1NC(=O)c1cnc(N)s1` [Example 248, 2-Amino-N-[4-fluoro-2-methyl-5-[[5-(morpholin-4-ylmethyl)pyridin-2-yl]carbamoyl]phenyl]-1,3-thiazole-5-carboxamide], for which the concentration for half-maximal inhibition (IC50) is below 100 nM in assay [1], above 1000 nM in assay [4], above 1000 nM in assay [5] and above 1000 nM in assay [3].
`COCCOc1ccc(NC(=O)c2cc(NC(=O)c3cnc(N)s3)c(C)cc2F)nc1` [Example 252, 2-Amino-N-[4-fluoro-5-[[5-(2-methoxyethoxy)pyridin-2-yl]carbamoyl]-2-methylphenyl]-1,3-thiazole-5-carboxamide]: the 50% inhibitory concentration (IC50) in assay [1] is below 100 nM; in assay [4], above 1000 nM; in assay [5] it was above 1000 nM; in assay [3], above 1000 nM.
Regarding `Cc1cc(F)c(C(=O)NCc2ccn(C(C)C)n2)cc1NC(=O)c1cnc(N)s1` [Example 253, 2-Amino-N-[4-fluoro-2-methyl-5-[(1-propan-2-ylpyrazol-3-yl)methylcarbamoyl]phenyl]-1,3-thiazole-5-carboxamide], the IC50 in assay [1] was below 100 nM; in assay [4], 100 to 1000 nM; in assay [5], 100 to 1000 nM; in assay [3], above 1000 nM.

The IC50 is the midpoint of a concentration-inhibition curve.
